This note sets out measurements from ChEMBL document CHEMBL1122941, “Design, synthesis, and pharmacological activities of 2-substituted 4-phenylquinolines as potential antidepressant drugs” (J Med Chem, 1985).

Where only a bound is given, the exact number is not on record here.

The term ED50 denotes the dose that gives a 50% effect, or the effect in half of the subjects. A high value points to a need for a large dose. What is called LD50 is the dose expected to kill half of the subjects tested. Higher therefore signals a less toxic substance.

The subject of series [1] is Mus musculus. The experiment in a line: Effective dose was evaluated for its antagonism to reserpine induced hypothermia in mice by intraperitoneal administration. It counts as functional. The following applies: ip.
A short description of series [2]: Therapeutic index as the ratio of LD50 to that of ED50 values.
Series [3] in a line: Lethal dose was evaluated against reserpine induced hypothermia in mice by intraperitoneal administration. It counts as toxicity, organism-based. As to conditions: mouse, in vivo, ip.

`O=c1n(CCCN2CCN(c3cccc(Cl)c3)CC2)nc2ccccn12` [TRAZODONE] registered an ED50 in series [1] of more than 50 mg/kg.

`CN(C)CCSc1cc(-c2ccccc2)c2ccccc2n1.Cl`: the therapeutic index (LD50/ED50) in series [2] stood at 4.7. The molecule further showed an ED50 in series [1] of 42.1 mg/kg. In addition, the LD50 in series [3] was determined as 198 mg/kg.

As to `Cl.O=c1n(CCCN2CCN(c3cc(-c4ccccc4)c4ccccc4n3)CC2)nc2ccccn12`, the therapeutic index (LD50/ED50) in series [2] was 9.7. Moreover, the 50% effective dose (ED50) in series [1] worked out at 40.2 mg/kg. This molecule had an LD50 in series [3] of 390 mg/kg.

With `CN(C)CCCN1c2ccccc2CCc2ccccc21` [IMIPRAMINE], in series [1], it took a dose of 21 mg/kg to reach the 50% effect level (ED50).

In turn, `CN(C)CCCOc1cc(-c2ccccc2)c2ccccc2n1.Cl` yielded an ED50 in series [1] of more than 50 mg/kg. Besides, in series [3], the median lethal dose (LD50) worked out at 200 mg/kg.

`CN(C)CCCN(C)c1cc(-c2ccccc2)c2ccccc2n1.Cl` showed an ED50 in series [1] of more than 50 mg/kg. This molecule had an LD50 in series [3] of 110 mg/kg.

Turning to `CN(C)CCCSc1cc(-c2ccccc2)c2ccccc2n1.Cl`, the ED50 in series [1] was more than 50 mg/kg. Further, in series [3], the LD50 came to 189 mg/kg.

`Cl.c1ccc(-c2cc(N3CCNCC3)nc3ccccc23)cc1`: in series [2], the therapeutic index (LD50/ED50) amounted to 12.7. Moreover, the median effective dose (ED50) in series [1] turned out to be 12 mg/kg. Further, in series [3], the LD50 is 152 mg/kg.

In the case of `CN(C)CCNc1cc(-c2ccccc2)c2ccccc2n1.Cl`, the therapeutic index (LD50/ED50) in series [2] turned out to be 3.92. The same molecule came in with an ED50 in series [1] of 26 mg/kg. Moreover, in series [3], the LD50 is 102 mg/kg.

Molecule `CN(C)CCCNc1cc(-c2ccccc2)c2ccccc2n1.Cl` yielded a 50% effective dose (ED50) in series [1] of more than 50 mg/kg. Further, the 50% lethal dose (LD50) in series [3] turned out to be 100 mg/kg.

Take `CCN(CC)Cc1cc(-c2ccccc2)c2ccccc2n1.Cl`: the therapeutic index (LD50/ED50) in series [2] was found to be 7.76. The same molecule displayed an ED50 in series [1] of more than 50 mg/kg. Moreover, the LD50 in series [3] was 163 mg/kg.

Turning to `Cl.ClCCCN1CCN(c2cc(-c3ccccc3)c3ccccc3n2)CC1`, in series [2], the therapeutic index (LD50/ED50) stood at 21.4. In series [1], this molecule yielded an ED50 of 18 mg/kg. This molecule also came in with an LD50 in series [3] of 385 mg/kg.

For the molecule `CN(C)CCN(C)c1cc(-c2ccccc2)c2ccccc2n1.Cl`, the therapeutic index (LD50/ED50) in series [2] turned out to be 3.63. In series [1], this molecule yielded an ED50 of 27 mg/kg. The median lethal dose (LD50) in series [3] is 98 mg/kg.

`CN(C)CCOc1cc(-c2ccccc2)c2ccccc2n1.Cl`: the therapeutic index (LD50/ED50) in series [2] came out at 10.9. In addition, the 50% effective dose (ED50) in series [1] turned out to be 18.5 mg/kg. The molecule further came in with a median lethal dose (LD50) in series [3] of 202 mg/kg.

`c1ccc2nc(N3CCNCC3)ccc2c1` [QUIPAZINE] gave an ED50 in series [1] of 35.4 mg/kg. Moreover, in series [3], the LD50 was determined as 135 mg/kg.
